Activity calls are given as the source filed them. No cut-off for these calls is given here.
Columns and labels:
[1] = biological target: Transient receptor potential cation channel subfamily V member 4 (Homo sapiens, UniProt Q9HBA0); experiment: Antagonist activity at human TRPV4 expressed in HEK293 cells assessed as inhibition of GSK634775A-induced calcium influx preincubated for 10 mins followed by GSK634775A addition by […] dye based FLIPR assay; type: cell-based
[2] = biological target: Transient receptor potential cation channel subfamily V member 4 (Rattus norvegicus, UniProt Q9ERZ8); experiment: Antagonist activity at rat TRPV4 expressed in HEK293 cells assessed as inhibition of GSK634775A-induced calcium influx preincubated for 10 mins followed by GSK634775A addition by […] dye based FLIPR assay; type: cell-based
Sequence of Transient receptor potential cation channel subfamily V member 4 (Rattus norvegicus, UniProt Q9ERZ8) (Q9ERZ8 whole entry): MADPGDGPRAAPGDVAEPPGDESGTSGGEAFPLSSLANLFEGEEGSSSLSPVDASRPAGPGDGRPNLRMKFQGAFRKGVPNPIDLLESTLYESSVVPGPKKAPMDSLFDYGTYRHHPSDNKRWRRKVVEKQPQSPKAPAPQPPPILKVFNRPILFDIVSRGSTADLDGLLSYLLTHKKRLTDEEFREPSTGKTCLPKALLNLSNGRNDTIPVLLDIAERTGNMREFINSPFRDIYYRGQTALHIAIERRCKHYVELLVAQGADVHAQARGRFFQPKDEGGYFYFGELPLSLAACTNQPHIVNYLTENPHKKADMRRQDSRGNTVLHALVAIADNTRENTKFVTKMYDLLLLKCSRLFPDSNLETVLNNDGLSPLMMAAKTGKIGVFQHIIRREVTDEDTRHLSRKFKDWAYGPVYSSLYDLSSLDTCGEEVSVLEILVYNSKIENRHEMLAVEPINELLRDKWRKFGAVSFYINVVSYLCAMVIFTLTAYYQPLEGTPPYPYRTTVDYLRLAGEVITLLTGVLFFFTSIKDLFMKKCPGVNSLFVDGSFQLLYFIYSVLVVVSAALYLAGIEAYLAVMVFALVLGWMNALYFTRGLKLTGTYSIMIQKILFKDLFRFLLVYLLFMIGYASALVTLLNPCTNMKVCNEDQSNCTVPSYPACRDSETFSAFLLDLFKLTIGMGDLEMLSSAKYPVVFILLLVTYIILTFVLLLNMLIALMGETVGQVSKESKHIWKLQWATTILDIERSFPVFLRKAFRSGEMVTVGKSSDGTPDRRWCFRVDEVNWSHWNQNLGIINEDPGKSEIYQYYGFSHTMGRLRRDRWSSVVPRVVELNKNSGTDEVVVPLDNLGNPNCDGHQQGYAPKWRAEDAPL

[3] = biological target: T1, Voltage-dependent L-type calcium channel subunit alpha-1C (Cavia porcellus, UniProt O35505); experiment: Inhibition of Cav1.2 in guinea pig ventricular myocytes assessed as decrease in current amplitude at 0.1 Hz by patch clamp method; type: cell-based
T1 sequence (O35505 whole entry): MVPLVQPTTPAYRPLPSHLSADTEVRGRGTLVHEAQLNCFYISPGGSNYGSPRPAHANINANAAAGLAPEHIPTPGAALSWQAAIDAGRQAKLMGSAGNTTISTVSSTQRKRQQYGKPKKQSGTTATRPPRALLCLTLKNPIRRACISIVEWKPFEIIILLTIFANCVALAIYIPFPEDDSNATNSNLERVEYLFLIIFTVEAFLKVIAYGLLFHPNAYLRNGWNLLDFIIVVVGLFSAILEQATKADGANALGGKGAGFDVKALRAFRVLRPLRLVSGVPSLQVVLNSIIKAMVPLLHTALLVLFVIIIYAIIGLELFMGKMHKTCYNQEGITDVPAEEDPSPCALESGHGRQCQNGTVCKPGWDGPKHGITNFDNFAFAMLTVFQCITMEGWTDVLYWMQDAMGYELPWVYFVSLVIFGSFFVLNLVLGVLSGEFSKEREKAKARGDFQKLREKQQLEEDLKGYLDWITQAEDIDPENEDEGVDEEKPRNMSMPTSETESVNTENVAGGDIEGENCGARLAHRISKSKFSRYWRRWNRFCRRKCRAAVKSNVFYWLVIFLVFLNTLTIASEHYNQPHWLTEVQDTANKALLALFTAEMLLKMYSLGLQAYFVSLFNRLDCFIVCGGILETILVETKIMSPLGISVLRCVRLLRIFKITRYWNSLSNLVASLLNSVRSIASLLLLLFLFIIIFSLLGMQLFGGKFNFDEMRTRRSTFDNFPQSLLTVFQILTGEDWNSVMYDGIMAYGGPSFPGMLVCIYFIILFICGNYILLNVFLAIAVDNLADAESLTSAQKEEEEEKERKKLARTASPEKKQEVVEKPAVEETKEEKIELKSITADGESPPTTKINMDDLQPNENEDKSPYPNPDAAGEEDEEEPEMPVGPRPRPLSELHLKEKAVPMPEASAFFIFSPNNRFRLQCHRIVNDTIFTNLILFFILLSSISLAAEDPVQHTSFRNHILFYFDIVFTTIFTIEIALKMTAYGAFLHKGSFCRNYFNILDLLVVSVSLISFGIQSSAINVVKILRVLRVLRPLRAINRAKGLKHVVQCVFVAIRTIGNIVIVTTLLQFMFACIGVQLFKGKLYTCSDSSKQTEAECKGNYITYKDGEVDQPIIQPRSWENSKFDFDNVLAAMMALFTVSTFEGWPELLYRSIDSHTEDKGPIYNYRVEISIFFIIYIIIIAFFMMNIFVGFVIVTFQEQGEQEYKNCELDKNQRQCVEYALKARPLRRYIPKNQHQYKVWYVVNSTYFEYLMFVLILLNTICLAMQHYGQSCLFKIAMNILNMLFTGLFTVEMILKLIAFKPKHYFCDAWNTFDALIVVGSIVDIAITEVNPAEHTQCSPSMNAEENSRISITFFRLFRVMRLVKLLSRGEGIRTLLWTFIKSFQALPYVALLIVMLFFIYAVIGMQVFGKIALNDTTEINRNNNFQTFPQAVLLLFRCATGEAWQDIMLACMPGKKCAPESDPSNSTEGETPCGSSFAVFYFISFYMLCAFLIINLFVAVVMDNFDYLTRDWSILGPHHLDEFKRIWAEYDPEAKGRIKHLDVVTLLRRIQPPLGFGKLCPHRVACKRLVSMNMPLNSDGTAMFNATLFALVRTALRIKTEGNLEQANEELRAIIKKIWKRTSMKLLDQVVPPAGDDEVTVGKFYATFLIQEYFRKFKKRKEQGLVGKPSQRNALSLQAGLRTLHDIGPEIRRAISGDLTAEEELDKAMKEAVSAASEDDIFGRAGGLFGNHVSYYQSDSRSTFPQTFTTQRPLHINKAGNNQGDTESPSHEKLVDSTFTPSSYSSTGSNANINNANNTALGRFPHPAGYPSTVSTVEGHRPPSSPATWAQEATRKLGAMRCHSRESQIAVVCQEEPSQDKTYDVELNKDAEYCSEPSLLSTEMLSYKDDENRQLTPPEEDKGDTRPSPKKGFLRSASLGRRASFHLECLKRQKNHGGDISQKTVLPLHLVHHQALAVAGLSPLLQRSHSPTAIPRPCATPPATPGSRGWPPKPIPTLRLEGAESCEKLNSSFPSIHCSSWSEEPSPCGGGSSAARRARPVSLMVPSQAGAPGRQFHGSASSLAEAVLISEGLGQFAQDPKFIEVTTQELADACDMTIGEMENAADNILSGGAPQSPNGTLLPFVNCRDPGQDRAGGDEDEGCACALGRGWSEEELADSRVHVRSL

[4] = biological target: T1, Voltage-dependent L-type calcium channel subunit alpha-1C; experiment: Inhibition of Cav1.2 in guinea pig ventricular myocytes assessed as decrease in current amplitude at 2 Hz by patch clamp method; type: cell-based
[5] = biological target: Nuclear receptor subfamily 1 group I member 2 (Homo sapiens, UniProt O75469); experiment: Activation of PXR (unknown origin); type: ADME
Substance-K receptor = Substance-K receptor (Homo sapiens, UniProt P21452); experiment: Inhibition of NK2 receptor (unknown origin) by FLIPR assay
Sequence of Substance-K receptor (P21452 whole entry): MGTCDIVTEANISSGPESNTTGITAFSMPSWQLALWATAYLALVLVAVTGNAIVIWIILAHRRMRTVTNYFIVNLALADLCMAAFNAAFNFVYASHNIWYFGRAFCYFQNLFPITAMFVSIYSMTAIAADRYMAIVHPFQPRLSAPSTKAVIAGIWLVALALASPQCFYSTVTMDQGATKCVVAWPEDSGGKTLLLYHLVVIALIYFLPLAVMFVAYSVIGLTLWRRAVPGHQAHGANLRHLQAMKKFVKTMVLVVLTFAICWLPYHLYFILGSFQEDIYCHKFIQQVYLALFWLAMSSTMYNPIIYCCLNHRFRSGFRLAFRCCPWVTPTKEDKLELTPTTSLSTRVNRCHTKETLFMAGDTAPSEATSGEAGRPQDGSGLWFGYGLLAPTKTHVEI

Neuromedin-K receptor = Neuromedin-K receptor (Homo sapiens, UniProt P29371); experiment: Inhibition of NK3 receptor (unknown origin) by FLIPR assay
Sequence of Neuromedin-K receptor (P29371 whole entry): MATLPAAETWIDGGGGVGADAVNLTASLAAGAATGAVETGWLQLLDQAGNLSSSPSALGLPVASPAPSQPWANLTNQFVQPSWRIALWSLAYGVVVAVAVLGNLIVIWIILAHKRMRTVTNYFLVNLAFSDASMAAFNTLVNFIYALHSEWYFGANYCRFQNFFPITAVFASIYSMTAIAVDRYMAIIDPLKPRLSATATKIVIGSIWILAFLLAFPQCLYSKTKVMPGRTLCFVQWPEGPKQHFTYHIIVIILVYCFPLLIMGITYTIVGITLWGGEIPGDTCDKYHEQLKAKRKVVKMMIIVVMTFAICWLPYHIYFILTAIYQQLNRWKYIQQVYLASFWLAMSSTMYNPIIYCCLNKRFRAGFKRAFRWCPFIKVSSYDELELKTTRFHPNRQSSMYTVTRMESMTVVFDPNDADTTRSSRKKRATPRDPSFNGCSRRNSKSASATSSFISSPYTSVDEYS

[6] = Clearance in Sprague-Dawley rat; type: ADME; settings: in vivo
[7] = Oral bioavailability in Sprague-Dawley rat; type: ADME, organism-based; settings: in vivo
Rattus norvegicus = experiment: Dose normalized AUC in po dosed Sprague-Dawley rat; type: ADME, organism-based; settings: in vivo
[8] = biological target: Voltage-gated inwardly rectifying potassium channel KCNH2 (Homo sapiens, UniProt Q12809); experiment: Inhibition of human ERG by patchXpress electrophysiology assay
[9] = biological target: Voltage-dependent L-type calcium channel subunit alpha-1C (Homo sapiens, UniProt Q13936); experiment: Inhibition of Cav1.2 (unknown origin) by patchXpress electrophysiology assay
[10] = biological target: Sodium channel protein type 5 subunit alpha (Homo sapiens, UniProt Q14524); experiment: Inhibition of Nav1.5 (unknown origin) by ionworks quattro electrophysiology assay
Canis familiaris [11] = experiment: Toxicity in Beagle dog assessed as QTc prolongation at 1 to 3 mg/kg, iv administered as infusion; type: organism-based, Canis lupus familiaris; settings: in vivo
Canis familiaris [12] = experiment: Toxicity in Beagle dog assessed as reduction in BP at 3 mg/kg, iv administered as infusion; type: organism-based, Canis lupus familiaris; settings: in vivo
Canis familiaris [13] = experiment: Toxicity in Beagle dog assessed as reduction in heart rate at 3 mg/kg, iv administered as infusion; type: organism-based, Canis lupus familiaris; settings: in vivo
Canis familiaris [14] = experiment: Toxicity in Beagle dog assessed as effect on cardiac output at 3 mg/kg, iv administered as infusion; type: organism-based, Canis lupus familiaris; settings: in vivo
Canis familiaris [15] = experiment: Toxicity in Beagle dog assessed as effect on LV function at 3 mg/kg, iv administered as infusion; type: organism-based, Canis lupus familiaris; settings: in vivo
[16] = Cmax in Beagle dog at 3 mg/kg, iv administered as infusion; type: ADME, organism-based, Canis lupus familiaris; design: dose 3 mg/kg, route intravenous; settings: in vivo
Canis familiaris [17] = experiment: Toxicity in Beagle dog assessed as hemodynamic effect at 1 mg/kg, iv administered as infusion; type: organism-based, Canis lupus familiaris; settings: in vivo
[18] = Cmax in Beagle dog at 1 mg/kg, iv administered as infusion; type: ADME, organism-based, Canis lupus familiaris; design: dose 1 mg/kg, route intravenous; settings: in vivo
Plasma = experiment: Terminal plasma concentration in TRPV4 knockout Balb/c mouse at 30 mg/kg, iv administered as infusion; type: ADME, organism-based; settings: in vivo, read-out: Cp(T)
Mus musculus [19] = experiment: Toxicity in TRPV4 knockout Balb/c mouse assessed as reduction in BP at 30 mg/kg, iv administered as infusion; type: organism-based; settings: in vivo
Mus musculus [20] = experiment: Toxicity in TRPV4 knockout Balb/c mouse assessed as reduction in heart rate at 30 mg/kg, iv administered as infusion; type: organism-based; settings: in vivo
[21] = Cardiotoxicity in rabbit ventricular wedge; type: toxicity, Oryctolagus cuniculus
[22] = biological target: Voltage-dependent N-type calcium channel subunit alpha-1B (Homo sapiens) (UniProt Q00975); experiment: Inhibition of Cav2.2 (unknown origin)
[23] = biological target: Voltage-dependent T-type calcium channel subunit alpha-1H (Homo sapiens) (UniProt O95180); experiment: Inhibition of Cav3.2 (unknown origin)
Aorta = experiment: Toxicity in mouse isolated aorta assessed as effect on contractility; type: tissue-based; settings: in vivo
[24] = Toxicity in mouse isolated right atria assessed as effect on contractility; design: species or system Right cardiac atrium; settings: in vivo
Canis familiaris [25] = experiment: Unbound plasma concentration in Beagle dog at 3 mg/kg, iv administered as infusion; settings: in vivo
Canis familiaris [26] = experiment: Unbound plasma concentration in Beagle dog at 1 mg/kg, iv administered as infusion; settings: in vivo

Sequence of Transient receptor potential cation channel subfamily V member 4 (Homo sapiens, UniProt Q9HBA0) (Q9HBA0 whole entry): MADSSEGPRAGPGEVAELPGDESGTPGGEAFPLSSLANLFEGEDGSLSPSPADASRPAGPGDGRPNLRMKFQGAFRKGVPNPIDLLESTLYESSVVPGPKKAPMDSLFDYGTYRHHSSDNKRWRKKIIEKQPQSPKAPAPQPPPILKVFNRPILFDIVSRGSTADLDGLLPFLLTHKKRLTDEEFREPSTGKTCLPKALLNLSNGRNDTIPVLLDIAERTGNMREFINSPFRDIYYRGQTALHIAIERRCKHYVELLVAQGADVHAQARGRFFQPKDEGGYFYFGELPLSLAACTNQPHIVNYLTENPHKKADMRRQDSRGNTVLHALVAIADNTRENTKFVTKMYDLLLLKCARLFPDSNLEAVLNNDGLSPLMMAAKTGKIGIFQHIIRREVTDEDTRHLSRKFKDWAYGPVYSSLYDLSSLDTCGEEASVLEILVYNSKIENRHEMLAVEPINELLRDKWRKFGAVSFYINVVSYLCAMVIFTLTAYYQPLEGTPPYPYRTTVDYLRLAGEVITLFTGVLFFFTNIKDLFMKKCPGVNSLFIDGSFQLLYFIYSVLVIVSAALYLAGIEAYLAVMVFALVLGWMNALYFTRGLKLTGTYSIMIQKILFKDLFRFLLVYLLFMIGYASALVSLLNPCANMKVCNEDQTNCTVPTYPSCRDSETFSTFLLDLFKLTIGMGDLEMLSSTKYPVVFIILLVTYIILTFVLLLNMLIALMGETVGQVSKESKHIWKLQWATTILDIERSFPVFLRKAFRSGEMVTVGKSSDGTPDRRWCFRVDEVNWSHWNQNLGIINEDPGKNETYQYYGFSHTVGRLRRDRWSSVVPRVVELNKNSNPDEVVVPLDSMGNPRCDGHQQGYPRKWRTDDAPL

CC(C)(NC(=O)c1c(CN2CCC(N3CCCCC3)CC2)c(-c2cccc(C(F)(F)F)c2)nc2ccccc12)c1ccccc1
IC50 [1]: 1000 nM | IC50 [2]: 40 nM

C[C@@H](NC(=O)c1c(CN2CCC(N3CCCCC3)CC2)c(-c2ccccc2)nc2ccccc12)c1ccccc1
IC50 [1]: 2000 nM | IC50 [2]: 630 nM

COc1ccc2c(C(=O)N[C@H](c3ccccc3)C(F)(F)F)c(CN3CCC(N4CCCCC4)CC3)c(-c3cccc(C(F)(F)F)c3)nc2c1
IC50 [1]: 50 nM | IC50 [2]: 4 nM

C[C@H](NC(=O)c1c(CN2CCC(N(C)C)CC2)c(-c2cccc(C(F)(F)F)c2)nc2ccccc12)c1ccccc1
IC50 [1]: 2510 nM | IC50 [2]: 320 nM

O=C(NCc1ccccc1)c1c(CN2CCC(N3CCCCC3)CC2)c(-c2cccc(C(F)(F)F)c2)nc2ccccc12
IC50 [1]: 500 nM | IC50 [2]: 50 nM

CC[C@H](NC(=O)c1c(CN2CCC(N3CCCCC3)CC2)c(-c2cccc(C(F)(F)F)c2)nc2ccccc12)c1ccccc1
IC50 [1]: 160 nM | IC50 [2]: 6 nM

C[C@H](NC(=O)c1c(CN2CCC(N3CCNCC3)CC2)c(-c2cccc(C(F)(F)F)c2)nc2ccccc12)c1ccccc1
IC50 [1]: 3160 nM | IC50 [2]: 790 nM

CCOc1ccc2c(C(=O)N[C@H](c3ccccc3)C(F)(F)F)c(CN3CCC(N4CCCCC4)CC3)c(-c3cccc(C(F)(F)F)c3)nc2c1
IC50 [1]: 10 nM | IC50 [2]: 3.2 nM | IC30 [3]: 10000 nM | IC30 [4]: 12000 nM | EC50 [5]: 1300 nM

C[C@H](NC(=O)c1c(CN2CCC(N3CCCCC3)CC2)c(-c2ccc(C(F)(F)F)cc2)nc2ccccc12)c1ccccc1
IC50 [1]: 400 nM | IC50 [2]: 16 nM

C[C@H](NC(=O)c1c(CN2CCCCC2)c(-c2cccc(C(F)(F)F)c2)nc2ccccc12)c1ccccc1
IC50 [1]: > 25000 nM | IC50 [2]: > 25000 nM

O=C(NC1(c2ccccc2)CC1)c1c(CN2CCC(N3CCCCC3)CC2)c(-c2cccc(C(F)(F)F)c2)nc2ccccc12
IC50 [1]: 50 nM | IC50 [2]: 2.5 nM

COc1cccc(-c2nc3ccccc3c(C(=O)N[C@@H](C)c3ccccc3)c2CN2CCC(N3CCCCC3)CC2)c1
IC50 [1]: 3980 nM | IC50 [2]: 630 nM

Cc1cccc(-c2nc3ccccc3c(C(=O)N[C@@H](C)c3ccccc3)c2CN2CCC(N3CCCCC3)CC2)c1
IC50 [1]: 500 nM | IC50 [2]: 13 nM

C[C@H](NC(=O)c1c(CN2CCC(N3CCCCC3)CC2)c(-c2cccc(Cl)c2)nc2ccccc12)c1ccccc1
IC50 [1]: 200 nM | IC50 [2]: 8 nM

O=C(N[C@@H](c1ccccc1)C(F)(F)F)c1c(CN2CCC(N3CCCCC3)CC2)c(-c2cccc(C(F)(F)F)c2)nc2ccccc12
IC50 [1]: 100 nM | IC50 [2]: 8 nM

C[C@@H](NC(=O)c1c(CN2CCC(N3CCCCC3)CC2)c(-c2cccc(C(F)(F)F)c2)nc2ccccc12)c1ccccc1
IC50 [1]: 2000 nM | IC50 [2]: 400 nM

CC(C)[C@H](NC(=O)c1c(CN2CCC(N3CCCCC3)CC2)c(-c2cccc(C(F)(F)F)c2)nc2ccccc12)c1ccccc1
IC50 [1]: 130 nM | IC50 [2]: 25 nM

C[C@H](NC(=O)c1c(CN2CCC(N3CCCCC3)CC2)c(-c2ccc(Cl)cc2)nc2ccccc12)c1ccccc1
IC50 [1]: 320 nM | IC50 [2]: 16 nM

O=C(N[C@H](c1ccccc1)C(F)(F)F)c1c(CN2CCC(N3CCCCC3)CC2)c(-c2cccc(C(F)(F)F)c2)nc2ccc(Br)cc12
IC50 [1]: 60 nM | IC50 [2]: 2.5 nM

COc1ccc2c(C(=O)NC3(c4ccccc4)CC3)c(CN3CCC(N4CCCCC4)CC3)c(-c3cccc(C(F)(F)F)c3)nc2c1
IC50 [1]: 250 nM | IC50 [2]: 2.5 nM

C[C@H](NC(=O)c1c(CN2CCC(N3CCCCC3)CC2)c(-c2cccc(C(F)(F)F)c2)nc2ccccc12)c1ccccc1
IC50 [1]: 80 nM | IC50 [2]: 2.5 nM | IC50 (Substance-K receptor): 1300 nM | IC50 (Neuromedin-K receptor): 2500 nM | clearance [6]: 25 mL/min/kg | bioavailability [7]: 100% | AUC/dose (Rattus norvegicus): 0.8 µg·h/mL/mg/kg | IC50 [8]: 1200 nM | IC50 [9]: 4500 nM | IC50 [10]: 40000 nM | Activity (Canis familiaris [11]): Toxic | Activity (Canis familiaris [12]): Toxic | Activity (Canis familiaris [13]): Toxic | Activity (Canis familiaris [14]): Toxic | Activity (Canis familiaris [15]): Toxic | Cmax [16]: 20 µM | Activity (Canis familiaris [17]): Non-Toxic | Cmax [18]: 7 µM | concentration (Plasma): 10 to 11 µM | Activity (Mus musculus [19]): Toxic | Activity (Mus musculus [20]): Toxic | IC30 [3]: 1700 nM | IC30 [4]: 120 nM | Activity [21]: Non-Toxic | inhibition [22]: inactive | inhibition [23]: inactive | Activity (Aorta): Non-Toxic | Activity [24]: Non-Toxic | unbound plasma concentration (Canis familiaris [25]): 0.94 µM | unbound plasma concentration (Canis familiaris [26]): 0.3 µM

O=C(N[C@H](c1ccccc1)C(F)(F)F)c1c(CN2CCC(N3CCCCC3)CC2)c(-c2cccc(C(F)(F)F)c2)nc2cc(Br)ccc12
IC50 [1]: 60 nM | IC50 [2]: 3.2 nM

C[C@H](NC(=O)c1c(CN2CCC(C3CCCCC3)CC2)c(-c2cccc(C(F)(F)F)c2)nc2ccccc12)c1ccccc1
IC50 [1]: > 25000 nM | IC50 [2]: > 25000 nM

O=C(N[C@H](c1ccccc1)C(F)(F)F)c1c(CN2CCC(N3CCCCC3)CC2)c(-c2cccc(C(F)(F)F)c2)nc2ccccc12
IC50 [1]: 40 nM | IC50 [2]: 2.5 nM

C[C@H](NC(=O)c1c(CN2CCC(N3CCOCC3)CC2)c(-c2cccc(C(F)(F)F)c2)nc2ccccc12)c1ccccc1
IC50 [1]: 50 nM | IC50 [2]: 4 nM

CCOc1ccc2c(C(=O)NC3(c4ccccc4)CC3)c(CN3CCC(N4CCCCC4)CC3)c(-c3cccc(C(F)(F)F)c3)nc2c1
IC50 [1]: 80 nM | IC50 [2]: 1.6 nM

COc1ccc(-c2nc3ccccc3c(C(=O)N[C@@H](C)c3ccccc3)c2CN2CCC(N3CCCCC3)CC2)cc1
IC50 [1]: 5010 nM | IC50 [2]: 320 nM

Cc1ccc(-c2nc3ccccc3c(C(=O)N[C@@H](C)c3ccccc3)c2CN2CCC(N3CCCCC3)CC2)cc1
IC50 [1]: 1580 nM | IC50 [2]: 100 nM

C[C@H](NC(=O)c1c(CN2CCC(N3CCCCC3)CC2)c(-c2ccccc2)nc2ccccc12)c1ccccc1
IC50 [1]: 2000 nM | IC50 [2]: 320 nM | IC50 (Substance-K receptor): 100 nM | IC50 (Neuromedin-K receptor): 8 nM | clearance [6]: 52 mL/min/kg
